PubChem BioAssay (NCI)
“And” between values parts separate entries of the source, which are not always exact repeats. Equal entries are not always repeated.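 Compound exposure: 48 hours, 5 concentrations, 96-well plates. GI50: concentration for 50% inhibition of growth. TGI is the concentration that stops growth completely.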 Where a SMILES comes first, the peptide text is derived from it. [ ]: non-standard residue; d: D form. 2Nal = N[CH](Cc1ccc2ccccc2c1)C(=O)O

What was measured:
Test in all cases: inhibition of tumour cell growth, NCI panel, 48 h
DMS 273 small cell lung = system: DMS 273 small cell lung
HOP-92 NSCLC = system: HOP-92 NSCLC
SF-268 CNS = system: SF-268 CNS
SR leukemia = system: SR leukemia
U251 CNS = system: U251 CNS
UACC-62 melanoma = system: UACC-62 melanoma
LXFL 529 NSCLC = system: LXFL 529 NSCLC
DU-145 prostate = system: DU-145 prostate
HS 578T breast = system: HS 578T breast
BT-549 breast = system: BT-549 breast

| SMILES | TGI (DMS 273 small cell lung) | TGI (HOP-92 NSCLC) | TGI (SF-268 CNS) | TGI (SR leukemia) | TGI (U251 CNS) | TGI (UACC-62 melanoma) | TGI (LXFL 529 NSCLC) | TGI (DU-145 prostate) | TGI (HS 578T breast) | GI50 (SR leukemia) | GI50 (U251 CNS) | GI50 (UACC-62 melanoma) | TGI (BT-549 breast) | GI50 (DMS 273 small cell lung) | GI50 (HOP-92 NSCLC) | GI50 (SF-268 CNS) |
| --- | --- | --- | --- | --- | --- | --- | --- | --- | --- | --- | --- | --- | --- | --- | --- | --- |
| CC(=O)ON(C(C)=O)C1C(COC(c2ccccc2)(c2ccccc2)c2ccccc2)OC2OC3(CCCC3)OC21 (stereo not given) | > 100 µM | 8.27 µM | > 100 µM | > 100 µM | > 100 µM | > 100 µM | – | – | – | – | – | – | – | – | – | – |
| Cn1nc(-c2ccccc2)c(C(=O)/C=C/c2ccc(F)cc2)c(N2CCOCC2)c1=O | 53 µM | 36.4 µM | 38.2 µM | – | 31.4 µM | 43 µM | 30.9 µM | – | – | – | – | – | – | – | – | – |
| OC1CCC[C@@H]1Sc1ccccc1 (stereo not given in full) | > 100 µM | > 100 µM | > 100 µM | > 100 µM | > 100 µM | > 100 µM | > 100 µM | – | – | – | – | – | – | – | – | – |
| CC(C)C(NC(=O)C(CCCCN)NC(=O)C(Cc1c[nH]c2ccccc12)NC(=O)C(Cc1ccc(O)cc1)NC(=O)C(CS)NC(=O)C(N)Cc1ccc2ccccc2c1)C(=O)NC(CS)C(=O)NC(C(N)=O)C(C)O (stereo not given) (H-[2Nal]CYWKVCT-NH2; configuration not given here) | > 100 µM | – | > 12.5 µM | > 100 µM | > 100 µM | > 100 µM | > 100 µM | > 12.5 µM | > 12.5 µM | > 100 µM | > 100 µM | > 100 µM | – | – | – | – |
| N#Cc1cc(NC(=O)c2ccccc2)c(=O)n2c1[nH]c1ccccc12 | > 100 µM | – | > 100 µM | – | > 100 µM | > 100 µM | > 100 µM | – | – | – | – | – | – | – | – | – |
| O=C1C2ON3c4ccccc4C(=O)C3(c3ccccc3)C2C(=O)N1c1ccccc1 (stereo not given) | > 100 µM | > 100 µM | > 100 µM | > 100 µM | > 100 µM | > 100 µM | > 100 µM | – | – | – | – | – | – | – | – | – |
| NNC(=O)N/N=C1\C(=O)N(c2nccs2)C(=O)C(=O)C1c1nc2ccccc2s1 (stereo not given) | > 100 µM | > 100 µM | > 100 µM | – | > 100 µM | > 100 µM | > 100 µM | – | – | – | – | – | – | – | – | – |
| COc1ccc(/C=C\c2cc(OC)c(OC)c(OC)c2)c(O)c1O | 63.1 µM | – | 37.8 µM and 32 µM | – | 18.7 µM and 6.09 µM | 17 µM and 6.88 µM | 12.8 µM | – | – | – | 0.0933 µM | 0.238 µM | 32.3 µM | 0.303 µM | 0.0588 µM | 0.249 µM |
| C#CCN(N=O)C(=O)NCCCC(NC(C)=O)C(=O)NCc1ccccc1 (stereo not given) | – | > 100 µM | > 100 µM | 51 µM | > 100 µM | > 100 µM | > 100 µM | – | – | – | – | – | – | – | – | – |
| C=C1C(=O)OC2C1C(OC(=O)/C(C)=C\C)CC1(CO1)C1C(O)C=C(C)C21O (stereo not given) | 20 µM | 31.3 µM | 17.4 µM | 24.2 µM | 24.5 µM | 5.81 µM | 3.42 µM | – | – | – | – | – | – | – | – | – |
| CCOC(=O)C1SC(=Nc2ccc(Cl)cc2C)N=C1C (stereo not given) | 66.9 µM | 30 µM | 94.5 µM | – | 31.6 µM | 27.9 µM | 45.6 µM | – | – | – | – | – | – | – | – | – |
| CN(C)CCNC(=O)c1cccc2ncc(-c3ccccc3)nc12 | 17.8 µM | 59.1 µM | 29.4 µM | 6.95 µM | 41.7 µM | 27.2 µM | 53.7 µM | – | – | – | – | – | – | – | – | – |
